Laboratory results reported in article PMC5467912, “Asymmetric regulation of quorum-sensing receptors drives autoinducer-specific gene expression programs in Vibrio cholerae” (PLoS Genetics, 2017).
“And” between values parts separate entries of the source, which are not always exact repeats. Identical values can stand only once.

Tests used:
qrr4 = format: cell-based; conditions: LuxS-CqsA- strain + autoinducer; Rep 1-3
CqsS = molecular target: T1, CqsS (Vibrio cholerae serotype O1, UniProt Q9KM66); experiment: cell-based; conditions: for Light production: strain WN1102; for EC50: light production, reporter strain WN1102, 4 h at 30 °C; for RLU: Strain WN1102
T1 construct: endogenous in cells; host or cells: V. cholerae WN1102 (ΔcqsA ΔluxQ/pBB1), derived from C6706str2
T1 sequence (Q9KM66 whole entry, looked up): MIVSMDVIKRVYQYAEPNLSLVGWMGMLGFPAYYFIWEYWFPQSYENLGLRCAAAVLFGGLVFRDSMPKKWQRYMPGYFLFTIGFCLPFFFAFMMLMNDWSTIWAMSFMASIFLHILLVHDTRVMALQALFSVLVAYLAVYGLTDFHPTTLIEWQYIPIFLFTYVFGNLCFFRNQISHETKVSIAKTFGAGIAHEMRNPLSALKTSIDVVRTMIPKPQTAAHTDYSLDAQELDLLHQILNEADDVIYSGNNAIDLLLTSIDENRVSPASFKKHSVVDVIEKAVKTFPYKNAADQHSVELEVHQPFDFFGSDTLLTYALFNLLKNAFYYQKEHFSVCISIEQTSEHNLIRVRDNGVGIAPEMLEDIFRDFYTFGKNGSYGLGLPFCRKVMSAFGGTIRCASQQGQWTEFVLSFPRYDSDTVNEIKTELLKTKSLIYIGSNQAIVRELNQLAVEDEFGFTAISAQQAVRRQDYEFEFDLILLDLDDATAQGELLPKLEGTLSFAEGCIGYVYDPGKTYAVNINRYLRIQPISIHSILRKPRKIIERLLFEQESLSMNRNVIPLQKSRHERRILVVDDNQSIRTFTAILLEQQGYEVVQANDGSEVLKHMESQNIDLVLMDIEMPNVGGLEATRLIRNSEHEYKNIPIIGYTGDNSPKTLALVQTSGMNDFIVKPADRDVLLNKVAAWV

Row | Compound | RLU, average per biological replicate (Totals) (qrr4) | Light production (CqsS; Agonist 0.0119209 nM) | Light production (CqsS; Agonist 0.0476837 nM) | Light production (CqsS; Agonist 0.190735 nM) | Light production (CqsS; Agonist 0.762939 nM) | Light production (CqsS; Agonist 3.05176 nM) | Light production (CqsS; Agonist 12.207 nM) | Light production (CqsS; Agonist 48.8281 nM) | Light production (CqsS; Agonist 195.312 nM) | Light production (CqsS; Agonist 781.25 nM) | Light production (CqsS; Agonist 3125 nM) | Light production (CqsS; Agonist 12500 nM) | Light production (CqsS; Agonist 50000 nM) | EC50 (CqsS) [nM] | CqsS agonist activity (CqsS; S10 Fig) | RLU (CqsS; agonist 0.762939 nM) | RLU (CqsS; agonist 12.207 nM) | RLU (CqsS; agonist 48.8281 nM) | RLU (CqsS; agonist 195.312 nM) | RLU (CqsS; agonist 50000 nM)
1 | CCCCCCCCCC(=O)[C@@H](O)CC [CAI] | 2.55E+08 RLU and 2.82E+08 RLU and 3.63E+08 RLU | – | – | – | – | – | – | – | – | – | – | – | – | – | – | – | – | – | – | –
2 | CCCn1nnnc1NCc1ccc(N(CC)CC)cc1 [#2] | – | 10481 RLU and 11875 RLU and 20274 RLU | 11765 RLU and 13923 RLU and 13822 RLU | 21584 RLU and 21176 RLU and 18763 RLU | 32000 RLU and 26047 RLU and 22456 RLU | 51860 RLU and 50633 RLU and 45087 RLU | 312292 RLU and 263721 RLU and 253642 RLU | 5147778 RLU and 5005576 RLU and 4962410 RLU | 29151080 RLU and 28675780 RLU and 30844170 RLU | 78218700 RLU and 84853010 RLU and 92706410 RLU | 94808130 RLU and 116685800 RLU and 113209800 RLU | 93694120 RLU and 114540600 RLU and 119989100 RLU | 88291390 RLU and 103481200 RLU and 109394800 RLU | 26 | – | – | – | – | – | –
3 | CCn1nnnc1NCc1ccc(C(C)C)cc1 [#5] | – | 22342 RLU and 16526 RLU and 20189 RLU | 18351 RLU and 14922 RLU and 16393 RLU | 24222 RLU and 32473 RLU and 30802 RLU | 43006 RLU and 46460 RLU and 51236 RLU | 215673 RLU and 187636 RLU and 197250 RLU | 3692444 RLU and 3488605 RLU and 3831864 RLU | 25448660 RLU and 29298250 RLU and 27925710 RLU | 71515280 RLU and 80802780 RLU and 79358510 RLU | 95077870 RLU and 111974800 RLU and 120784000 RLU | 107051300 RLU and 126535100 RLU and 129294500 RLU | 98996430 RLU and 113608500 RLU and 123733600 RLU | 91459320 RLU and 107555000 RLU and 106482900 RLU | 8 | – | – | – | – | – | –
4 | c1cc(N2CCCC2)ccc1CNc1nnn[nH]1 [#6] | – | – | – | – | – | – | – | – | – | – | – | – | – | – | loses all activity | 2.15E+03 RLU and 2.08E+03 RLU and 4.10E+03 RLU | 2.13E+03 RLU and 2.35E+03 RLU and 4.10E+03 RLU | 2.14E+03 RLU and 2.26E+03 RLU and 4.12E+03 RLU | 6.45E+03 RLU and 4.19E+03 RLU and 4.17E+03 RLU | 6.42E+03 RLU and 4.10E+03 RLU and 6.49E+03 RLU
5 | CCCn1nnnc1NCc1ccc(C(C)C)cc1 [#4] | – | 12293 RLU and 13200 RLU and 7500 RLU | 18202 RLU and 15106 RLU and 14409 RLU | 28023 RLU and 25417 RLU and 23860 RLU | 52174 RLU and 73300 RLU and 48409 RLU | 246211 RLU and 267975 RLU and 261469 RLU | 3790123 RLU and 3428043 RLU and 3340791 RLU | 19838010 RLU and 18010170 RLU and 17447160 RLU | 61742000 RLU and 56850120 RLU and 54681960 RLU | 104719700 RLU and 101045100 RLU and 95346500 RLU | 119868200 RLU and 118607300 RLU and 107846700 RLU | 122328400 RLU and 118368100 RLU and 108047500 RLU | 103497500 RLU and 101746000 RLU and 97356600 RLU | 7 | – | – | – | – | – | –
